Experimental data from ChEMBL document CHEMBL4507268 (2021).

Assays:
[1] = target: RAC-alpha serine/threonine-protein kinase (Homo sapiens) (UniProt P31749); conditions: Compound concentration 1000.0 nM
[2] = system: Epidermal growth factor receptor (Homo sapiens), P00533 [UNDEFINED MUTATION]; conditions: Compound concentration 1000.0 nM
[3] = target: T1, Ephrin type-B receptor 3 (Homo sapiens) (UniProt P54753); conditions: Compound concentration 1000.0 nM
T1 sequence (whole entry): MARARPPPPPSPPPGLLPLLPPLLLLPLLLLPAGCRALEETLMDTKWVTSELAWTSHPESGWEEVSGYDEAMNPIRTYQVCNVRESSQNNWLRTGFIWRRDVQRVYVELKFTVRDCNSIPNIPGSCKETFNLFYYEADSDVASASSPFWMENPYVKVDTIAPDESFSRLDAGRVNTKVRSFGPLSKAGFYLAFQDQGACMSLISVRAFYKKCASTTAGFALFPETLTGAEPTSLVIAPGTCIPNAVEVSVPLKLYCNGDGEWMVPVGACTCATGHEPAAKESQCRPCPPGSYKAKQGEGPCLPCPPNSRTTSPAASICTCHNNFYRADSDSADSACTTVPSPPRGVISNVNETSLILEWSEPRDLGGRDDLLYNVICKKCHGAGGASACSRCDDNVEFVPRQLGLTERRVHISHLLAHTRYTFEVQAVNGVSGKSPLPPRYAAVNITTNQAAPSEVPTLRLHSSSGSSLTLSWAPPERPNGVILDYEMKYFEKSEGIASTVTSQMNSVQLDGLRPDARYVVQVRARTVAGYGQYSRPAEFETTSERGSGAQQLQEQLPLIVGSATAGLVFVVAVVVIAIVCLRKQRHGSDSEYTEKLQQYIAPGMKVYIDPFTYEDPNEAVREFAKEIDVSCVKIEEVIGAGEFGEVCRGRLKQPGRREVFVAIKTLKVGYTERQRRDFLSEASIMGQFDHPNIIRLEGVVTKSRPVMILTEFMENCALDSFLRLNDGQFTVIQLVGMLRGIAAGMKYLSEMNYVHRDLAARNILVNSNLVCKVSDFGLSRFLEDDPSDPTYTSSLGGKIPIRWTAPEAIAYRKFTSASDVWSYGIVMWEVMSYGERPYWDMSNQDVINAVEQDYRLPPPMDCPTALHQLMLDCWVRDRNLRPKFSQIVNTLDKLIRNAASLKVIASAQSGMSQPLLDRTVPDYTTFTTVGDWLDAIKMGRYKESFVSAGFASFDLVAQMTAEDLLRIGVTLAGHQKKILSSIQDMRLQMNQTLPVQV

[4] = target: Mitogen-activated protein kinase 1 (Homo sapiens) (UniProt P28482); conditions: Compound concentration 1000.0 nM
[5] = system: Receptor-type tyrosine-protein kinase FLT3 (Homo sapiens), P36888 [D835H]; conditions: Compound concentration 1000.0 nM
[6] = target: Cyclin-G-associated kinase (Homo sapiens) (UniProt O14976); conditions: Compound concentration 1000.0 nM
[7] = target: Serine/threonine-protein kinase LATS1 (Homo sapiens) (UniProt O95835); conditions: Compound concentration 1000.0 nM
Sequence of Serine/threonine-protein kinase LATS1 (Homo sapiens) (O95835 whole entry): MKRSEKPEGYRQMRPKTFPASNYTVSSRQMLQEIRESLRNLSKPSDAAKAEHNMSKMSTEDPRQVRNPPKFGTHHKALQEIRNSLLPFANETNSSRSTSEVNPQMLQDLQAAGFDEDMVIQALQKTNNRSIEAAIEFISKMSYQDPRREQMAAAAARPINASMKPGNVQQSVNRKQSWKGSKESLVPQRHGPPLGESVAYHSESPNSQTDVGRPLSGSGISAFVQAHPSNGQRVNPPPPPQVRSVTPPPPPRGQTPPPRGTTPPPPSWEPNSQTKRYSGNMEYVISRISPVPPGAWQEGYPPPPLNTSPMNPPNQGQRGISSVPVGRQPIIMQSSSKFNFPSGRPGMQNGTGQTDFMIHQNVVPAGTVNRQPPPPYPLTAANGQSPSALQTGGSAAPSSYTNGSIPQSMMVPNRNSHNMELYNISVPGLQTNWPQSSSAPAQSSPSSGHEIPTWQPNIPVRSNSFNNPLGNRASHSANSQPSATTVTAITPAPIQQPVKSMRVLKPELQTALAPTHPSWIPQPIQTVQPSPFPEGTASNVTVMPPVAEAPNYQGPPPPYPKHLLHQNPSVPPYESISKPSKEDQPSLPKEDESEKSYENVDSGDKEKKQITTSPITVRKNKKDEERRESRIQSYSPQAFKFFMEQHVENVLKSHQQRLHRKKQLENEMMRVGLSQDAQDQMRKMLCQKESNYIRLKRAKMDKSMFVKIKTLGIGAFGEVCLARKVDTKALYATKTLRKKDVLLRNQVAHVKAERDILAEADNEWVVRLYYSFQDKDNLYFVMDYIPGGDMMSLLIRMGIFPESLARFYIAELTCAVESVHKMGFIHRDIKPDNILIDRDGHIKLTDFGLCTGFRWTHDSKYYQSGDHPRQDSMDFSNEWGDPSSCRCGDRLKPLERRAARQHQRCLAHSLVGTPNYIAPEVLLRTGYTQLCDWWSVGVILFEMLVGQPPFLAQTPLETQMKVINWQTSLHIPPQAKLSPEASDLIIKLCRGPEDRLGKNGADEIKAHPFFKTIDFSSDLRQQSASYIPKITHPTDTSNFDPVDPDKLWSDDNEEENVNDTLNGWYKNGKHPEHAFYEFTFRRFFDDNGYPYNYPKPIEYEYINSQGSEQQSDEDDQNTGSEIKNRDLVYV

[8] = target: T2, Serine/threonine-protein kinase Nek9 (Homo sapiens) (UniProt Q8TD19); conditions: Compound concentration 1000.0 nM
T2 sequence (whole entry): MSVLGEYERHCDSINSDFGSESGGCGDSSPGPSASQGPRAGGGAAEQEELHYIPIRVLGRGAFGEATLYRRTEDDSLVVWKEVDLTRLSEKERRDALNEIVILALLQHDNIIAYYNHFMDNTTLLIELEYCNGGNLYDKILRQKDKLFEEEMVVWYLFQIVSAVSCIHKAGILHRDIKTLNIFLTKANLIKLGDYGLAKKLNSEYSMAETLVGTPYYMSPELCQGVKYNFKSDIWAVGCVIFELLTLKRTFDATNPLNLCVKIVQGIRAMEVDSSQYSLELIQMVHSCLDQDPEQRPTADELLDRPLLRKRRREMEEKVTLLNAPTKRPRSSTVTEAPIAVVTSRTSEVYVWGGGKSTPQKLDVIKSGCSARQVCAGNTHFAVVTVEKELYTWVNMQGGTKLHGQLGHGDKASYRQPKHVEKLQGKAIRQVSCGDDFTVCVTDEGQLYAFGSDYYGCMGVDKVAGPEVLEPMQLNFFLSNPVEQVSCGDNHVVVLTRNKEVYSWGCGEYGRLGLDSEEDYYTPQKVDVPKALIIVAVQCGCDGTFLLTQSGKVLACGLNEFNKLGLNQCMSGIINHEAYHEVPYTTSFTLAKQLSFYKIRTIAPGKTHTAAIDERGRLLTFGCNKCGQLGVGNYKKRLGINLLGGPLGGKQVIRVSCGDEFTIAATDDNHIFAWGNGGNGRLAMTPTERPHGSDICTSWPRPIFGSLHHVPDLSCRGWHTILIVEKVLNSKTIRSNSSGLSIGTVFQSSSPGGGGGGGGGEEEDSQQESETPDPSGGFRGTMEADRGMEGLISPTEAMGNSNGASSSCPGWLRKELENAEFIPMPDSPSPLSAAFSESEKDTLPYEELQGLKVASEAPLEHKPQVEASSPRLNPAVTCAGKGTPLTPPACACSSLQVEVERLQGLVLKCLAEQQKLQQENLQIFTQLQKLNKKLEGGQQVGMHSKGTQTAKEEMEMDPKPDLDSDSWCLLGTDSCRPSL

[9] = target: STE20-like serine/threonine-protein kinase (Homo sapiens) (UniProt Q9H2G2); conditions: Compound concentration 1000.0 nM
Sequence of STE20-like serine/threonine-protein kinase (Homo sapiens) (Q9H2G2 whole entry, looked up): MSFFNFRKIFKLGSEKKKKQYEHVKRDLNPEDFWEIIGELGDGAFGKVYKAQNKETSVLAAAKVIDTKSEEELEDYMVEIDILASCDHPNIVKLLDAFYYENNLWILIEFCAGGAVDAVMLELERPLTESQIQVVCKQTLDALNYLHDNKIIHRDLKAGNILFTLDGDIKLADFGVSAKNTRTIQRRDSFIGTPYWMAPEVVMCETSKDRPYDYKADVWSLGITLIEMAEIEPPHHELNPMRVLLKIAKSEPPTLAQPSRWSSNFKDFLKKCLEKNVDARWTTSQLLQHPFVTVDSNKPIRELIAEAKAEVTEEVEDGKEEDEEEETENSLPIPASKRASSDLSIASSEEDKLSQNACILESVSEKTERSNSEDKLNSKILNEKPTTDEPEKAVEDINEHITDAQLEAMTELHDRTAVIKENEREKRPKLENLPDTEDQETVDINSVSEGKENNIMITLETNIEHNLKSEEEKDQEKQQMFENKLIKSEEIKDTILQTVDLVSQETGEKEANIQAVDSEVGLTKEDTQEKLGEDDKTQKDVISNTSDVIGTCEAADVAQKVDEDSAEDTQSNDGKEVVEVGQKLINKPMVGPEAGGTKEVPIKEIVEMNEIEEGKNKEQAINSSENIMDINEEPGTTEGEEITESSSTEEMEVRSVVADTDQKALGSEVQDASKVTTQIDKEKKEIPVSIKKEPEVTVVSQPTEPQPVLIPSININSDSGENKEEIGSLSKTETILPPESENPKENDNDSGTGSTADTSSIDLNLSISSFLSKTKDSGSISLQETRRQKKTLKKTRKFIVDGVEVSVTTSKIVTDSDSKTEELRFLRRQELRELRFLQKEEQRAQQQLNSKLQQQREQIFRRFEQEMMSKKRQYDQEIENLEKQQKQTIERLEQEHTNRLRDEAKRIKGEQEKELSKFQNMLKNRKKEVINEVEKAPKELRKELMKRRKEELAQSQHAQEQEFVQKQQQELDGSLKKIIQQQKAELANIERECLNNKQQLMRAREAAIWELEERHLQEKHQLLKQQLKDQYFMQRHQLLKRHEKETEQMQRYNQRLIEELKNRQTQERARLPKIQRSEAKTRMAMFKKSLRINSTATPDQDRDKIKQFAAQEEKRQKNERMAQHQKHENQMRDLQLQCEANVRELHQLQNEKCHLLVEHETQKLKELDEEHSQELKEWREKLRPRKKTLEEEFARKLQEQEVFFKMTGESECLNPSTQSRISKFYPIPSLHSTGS

[10] = target: Serine/threonine-protein kinase 32B (Homo sapiens) (UniProt Q9NY57); conditions: Compound concentration 1000.0 nM
Sequence of Serine/threonine-protein kinase 32B (Homo sapiens) (Q9NY57 whole entry): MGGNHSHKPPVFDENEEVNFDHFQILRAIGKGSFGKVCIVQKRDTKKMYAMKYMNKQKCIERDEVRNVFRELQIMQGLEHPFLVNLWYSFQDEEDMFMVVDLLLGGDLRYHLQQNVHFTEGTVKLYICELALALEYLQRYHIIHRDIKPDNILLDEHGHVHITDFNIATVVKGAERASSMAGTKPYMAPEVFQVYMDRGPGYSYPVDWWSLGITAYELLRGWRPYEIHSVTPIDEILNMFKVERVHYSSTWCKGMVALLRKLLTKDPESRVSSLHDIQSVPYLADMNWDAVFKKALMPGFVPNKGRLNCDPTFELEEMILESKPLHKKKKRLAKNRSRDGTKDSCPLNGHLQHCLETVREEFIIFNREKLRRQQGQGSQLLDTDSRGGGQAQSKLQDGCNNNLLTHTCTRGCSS

[11] = target: 5-hydroxytryptamine receptor 2B (Homo sapiens) (UniProt P41595); conditions: Compound concentration 10.0 uM
Sequence of 5-hydroxytryptamine receptor 2B (Homo sapiens) (P41595 whole entry): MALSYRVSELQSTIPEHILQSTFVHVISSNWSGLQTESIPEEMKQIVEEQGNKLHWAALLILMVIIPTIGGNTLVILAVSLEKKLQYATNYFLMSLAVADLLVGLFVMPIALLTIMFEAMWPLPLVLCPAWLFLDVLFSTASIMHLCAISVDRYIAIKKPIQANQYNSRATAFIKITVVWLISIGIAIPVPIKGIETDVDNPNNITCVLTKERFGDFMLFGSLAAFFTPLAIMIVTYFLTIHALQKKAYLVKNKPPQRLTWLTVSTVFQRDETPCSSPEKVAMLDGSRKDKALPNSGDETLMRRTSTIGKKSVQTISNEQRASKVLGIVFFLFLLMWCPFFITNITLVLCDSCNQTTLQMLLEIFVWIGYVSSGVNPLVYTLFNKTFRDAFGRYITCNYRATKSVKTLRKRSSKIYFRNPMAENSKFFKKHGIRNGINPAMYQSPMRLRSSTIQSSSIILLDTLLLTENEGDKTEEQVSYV

[12] = target: Alpha-1B adrenergic receptor (Homo sapiens) (UniProt P35368); conditions: Compound concentration 10.0 uM

Sequence of RAC-alpha serine/threonine-protein kinase (Homo sapiens) (P31749 whole entry): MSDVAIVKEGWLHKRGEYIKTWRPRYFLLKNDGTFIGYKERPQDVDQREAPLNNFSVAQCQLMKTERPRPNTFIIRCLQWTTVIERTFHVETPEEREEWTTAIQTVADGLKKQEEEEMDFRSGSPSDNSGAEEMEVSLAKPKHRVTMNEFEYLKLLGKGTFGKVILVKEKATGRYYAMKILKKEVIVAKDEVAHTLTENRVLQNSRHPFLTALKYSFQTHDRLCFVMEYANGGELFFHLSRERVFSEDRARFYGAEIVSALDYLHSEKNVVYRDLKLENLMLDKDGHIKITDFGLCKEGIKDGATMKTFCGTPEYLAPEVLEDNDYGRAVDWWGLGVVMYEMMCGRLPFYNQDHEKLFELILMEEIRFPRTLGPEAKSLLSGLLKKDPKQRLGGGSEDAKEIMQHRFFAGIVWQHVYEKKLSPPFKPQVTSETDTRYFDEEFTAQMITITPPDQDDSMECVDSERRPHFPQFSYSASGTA
Sequence of Epidermal growth factor receptor (Homo sapiens), P00533 [UNDEFINED MUTATION] (P00533 whole entry, looked up, change not shown): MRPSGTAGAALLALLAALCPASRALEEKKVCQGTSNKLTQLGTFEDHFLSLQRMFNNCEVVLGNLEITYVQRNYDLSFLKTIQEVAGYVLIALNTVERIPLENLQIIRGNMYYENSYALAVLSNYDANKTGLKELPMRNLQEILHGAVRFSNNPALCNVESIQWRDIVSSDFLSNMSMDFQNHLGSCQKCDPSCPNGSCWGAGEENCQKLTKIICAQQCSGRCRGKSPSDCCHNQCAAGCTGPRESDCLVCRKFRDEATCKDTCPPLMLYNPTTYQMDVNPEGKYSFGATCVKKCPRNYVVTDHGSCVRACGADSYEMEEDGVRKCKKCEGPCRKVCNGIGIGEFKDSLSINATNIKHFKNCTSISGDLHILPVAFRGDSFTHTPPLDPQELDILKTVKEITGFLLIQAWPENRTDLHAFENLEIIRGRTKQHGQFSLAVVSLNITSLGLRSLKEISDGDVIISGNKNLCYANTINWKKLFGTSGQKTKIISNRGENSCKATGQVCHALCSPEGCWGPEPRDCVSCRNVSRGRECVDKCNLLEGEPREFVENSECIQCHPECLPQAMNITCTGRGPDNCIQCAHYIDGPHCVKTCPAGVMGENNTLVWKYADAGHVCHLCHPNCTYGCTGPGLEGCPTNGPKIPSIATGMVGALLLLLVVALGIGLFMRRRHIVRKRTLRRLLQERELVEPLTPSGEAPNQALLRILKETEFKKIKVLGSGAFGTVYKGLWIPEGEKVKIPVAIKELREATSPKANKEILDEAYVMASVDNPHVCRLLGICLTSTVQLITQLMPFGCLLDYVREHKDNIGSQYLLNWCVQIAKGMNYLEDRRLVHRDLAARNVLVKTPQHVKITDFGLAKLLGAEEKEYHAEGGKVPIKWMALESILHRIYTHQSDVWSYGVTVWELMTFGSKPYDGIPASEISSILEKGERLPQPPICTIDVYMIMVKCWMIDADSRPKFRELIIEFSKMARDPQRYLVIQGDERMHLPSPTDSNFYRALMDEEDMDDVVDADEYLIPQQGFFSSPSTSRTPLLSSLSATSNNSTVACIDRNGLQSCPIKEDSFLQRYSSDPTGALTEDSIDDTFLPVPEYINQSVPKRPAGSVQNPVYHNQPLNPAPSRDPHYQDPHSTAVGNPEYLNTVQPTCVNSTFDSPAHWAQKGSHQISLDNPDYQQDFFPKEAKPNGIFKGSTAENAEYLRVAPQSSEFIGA

Cc1nc(C2CCN(C(=O)c3ccc(OC(F)(F)F)cc3N)CC2)c2ncc(N3CCN(C)CC3)cc2n1 [BAY-693]
inactive: residual activity [1] 100% | residual activity [2] 91% | residual activity [3] 100% | residual activity [4] 98% | residual activity [5] 69% | residual activity [6] 100% | residual activity [7] 78% | residual activity [8] 94% | residual activity [9] 97% | residual activity [10] 90% | inhibition [11] -1.28% | inhibition [12] 20.2%

CN1CCN(c2cnc3c(C4CCN(C(=O)c5ccc(OC(F)(F)F)cc5N)CC4)ncnc3c2)CC1 [BAY-885]
inactive: residual activity [1] 100% | residual activity [2] 77% | residual activity [3] 100% | residual activity [4] 94% | residual activity [5] 75% | residual activity [6] 100% | residual activity [7] 81% | residual activity [8] 100% | residual activity [9] 96% | residual activity [10] 87% | inhibition [11] 3.56% | inhibition [12] 16.4%
